From patent publication US8124633B2, “Hydroxymethyl ether hydroisoindoline tachykinin receptor antagonists” (Merck Sharp & Dohme Corp., priority 2007, dated 2012)

Target: T1, human neurokinin-1 receptor (NK1R) (Homo sapiens, UniProt P25103)
T1 construct: the cDNA for the human NK1R was cloned into the expression vector pCDM9; expressed in transfected cells
Test: Binding assay of human NK1R expressed in COS or CHO cells (125I-substance P competition)
Settings: for IC50: 125I-substance P binding to human NK1R expressed in COS or CHO cells
Procedure: Receptor Expression in COS: To express the cloned human neurokinin-1 receptor (NK1R) transiently in COS, the cDNA for the human NK1R was cloned into the expression vector pCDM9 which was derived from pCDM8 (INVITROGEN) by inserting the ampicillin resistance gene (nucleotide 1973 to 2964 from BLUESCRIPT SK+) into the Sac II site. Transfection of 20 ug of the plasmid DNA into 10 million COS cells was achieved by electroporation in 800 ul of transfection buffer (135 mM NaCl, 1.2 mM CaCl2, 1.2 mM MgCl2, 2.4 mM K2HPO4, 0.6 mM KH2PO4, 10 mM glucose, 10 mM HEPES pH 7.4) at 260 V and 950 uF using the IBI GENEZAPPER (1131, New Haven, Conn.). The cells were incubated in 10% fetal calf serum, 2 mM glutamine, 100 U/ml penicillin-streptomycin, and 90% DMEM media (GIBCO, Grand Island, N.Y.) in 5% CO2 at 37° C. for three days before the binding assay.
Stable Expression in CHO: To establish a stable cell line expressing the cloned human NK1R, the cDNA was subcloned into the vector pRcCMV (INVITROGEN). Transfection of 20 ug of the plasmid DNA into CHO cells was achieved by electroporation in 800 ul of transfection buffer supplemented with 0.625 mg/ml Herring sperm DNA at 300 V and 950 uF using the IBI GENEZAPPER (IBI). The transfected cells were incubated in CHO media [10% fetal calf serum, 100 U/ml penicillin-streptomycin, 2 mM glutamine, 1/500 hypoxanthine-thymidine (ATCC), 90% IMDM media (JRH BIOSCIENCES, Lenexa, Kans.), 0.7 mg/ml G418 (GIBCO)] in 5% CO2 at 37° C. until colonies were visible. Each colony was separated and propagated. The cell clone with the highest number of human NK1R was selected for subsequent applications such as drug screening.
Assay Protocol using COS or CHO: The binding assay of human NK1R expressed in either COS or CHO cells is based on the use of ^125I-substance P (^125I-SP, from DU PONT, Boston, Mass.) as a radioactively labeled ligand which competes with unlabeled substance P or any other ligand for binding to the human NK1R. Monolayer cell cultures of COS or CHO were dissociated by the non-enzymatic solution (SPECIALTY MEDIA, Lavallette, N.J.) and resuspended in appropriate volume of the binding buffer (50 mM Tris pH 7.5, 5 mM MnCl2, 150 mM NaCl, 0.04 mg/ml bacitracin, 0.004 mg/ml leupeptin, 0.2 mg/ml BSA, 0.01 mM phosphoramidon) such that 200 ul of the cell suspension would give rise to about 10,000 cpm of specific ^125I-SP binding (approximately 50,000 to 200,000 cells). In the binding assay, 200 ul of cells were added to a tube containing 20 ul of 1.5 to 2.5 nM of ^125I-SP and 20 ul of unlabeled substance P or any other test compound. The tubes were incubated at 4° C. or at room temperature for 1 hour with gentle shaking. The bound radioactivity was separated from unbound radioactivity by GF/C filter (BRANDEL, Gaithersburg, Md.) which was pre-wetted with 0.1% polyethylenimine. The filter was washed with 3 ml of wash buffer (50 mM Tris pH 7.5, 5 mM MnCl2, 150 mM NaCl) three times and its radioactivity was determined by gamma counter. The activation of phospholipase C by NK1R may also be measured in CHO cells expressing the human NK1R by determining the accumulation of inositol monophosphate which is a degradation product of IP3. CHO cells are seeded in 12-well plate at 250,000 cells per well. After incubating in CHO media for 4 days, cells are loaded with 0.025 uCi/ml of 3H-myoinositol by overnight incubation. The extracellular radioactivity is removed by washing with phosphate buffered saline. LiCl is added to the well at final concentration of […] with or without the test compound, and incubation is continued at 37° C. for […]. Substance P is added to the well at final concentration of 0.3 nM to activate the human NK1R. After 30 min of incubation at 37° C., the media is removed and 0.1 N HCl is added. Each well is sonicated at 4° C. and extracted with CHCl3/methanol (1:1). The aqueous phase is applied to a 1 ml Dowex AG 1×8 ion exchange column. […]

T1 sequence (P25103 whole entry): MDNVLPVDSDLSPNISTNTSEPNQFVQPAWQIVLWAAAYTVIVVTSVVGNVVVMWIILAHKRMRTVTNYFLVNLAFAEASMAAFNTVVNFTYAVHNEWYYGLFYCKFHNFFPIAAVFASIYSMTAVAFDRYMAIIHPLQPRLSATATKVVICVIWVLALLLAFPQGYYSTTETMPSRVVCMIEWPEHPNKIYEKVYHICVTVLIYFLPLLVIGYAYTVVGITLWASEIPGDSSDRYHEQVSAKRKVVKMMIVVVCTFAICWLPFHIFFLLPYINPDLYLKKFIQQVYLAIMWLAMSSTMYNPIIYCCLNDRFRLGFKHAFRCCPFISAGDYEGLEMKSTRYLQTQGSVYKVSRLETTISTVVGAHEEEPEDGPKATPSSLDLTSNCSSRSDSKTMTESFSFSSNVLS

| IC50 [nM] | inhibition at 0.0001 µM (at 0.1 nM, 125I-substance P binding to human NK1R) [%] | SMILES |
| --- | --- | --- |
| 0.04 |  | Cc1ccccc1[C@H]1[C@@H]2CNC[C@H]2CC[C@@H]1O[C@H](CO)c1cc(C(F)(F)F)cc(C(F)(F)F)c1 [Example 2, (2S)-2-[3,5-bis(trifluoromethyl)phenyl]-2-{[(3aR,4R,5S,7aS)-4-(2-methylphenyl)octahydro-1H-isoindol-5-yl]oxy}ethanol] |
| 0.06 |  | Cc1ccccc1[C@H]1[C@@H]2CN(C3=CC(=O)CC3)C[C@H]2CC[C@@H]1O[C@H](CO)c1cc(C(F)(F)F)cc(C(F)(F)F)c1 [Example 3, 3-[(3aR,4R,5S,7aS)-5-{(1S)-1-[3,5-bis(trifluoromethyl)phenyl]-2-hydroxyethoxy}-4-(2-methylphenyl)octahydro-2H-isoindol-2-yl]cyclopent-2-en-1-one] |
| 0.1 |  | COC[C@@H](O[C@H]1CC[C@@H]2CN(C3=CC(=O)CC3)C[C@H]2[C@@H]1c1ccccc1C)c1cc(C(F)(F)F)cc(C(F)(F)F)c1 [Example 4, 3-[(3aR,4R,5S,7aS)-5-{(1S)-1-[3,5-bis(trifluoromethyl)phenyl]-2-methoxyethoxy}-4-(2-methylphenyl)octahydro-2H-isoindol-2-yl]cyclopent-2-en-1-one] |
| 0.06 |  | Cc1ccccc1[C@H]1[C@@H]2CN(C3=NC(=O)CO3)C[C@H]2CC[C@@H]1O[C@H](CO)c1cc(C(F)(F)F)cc(C(F)(F)F)c1 [Example 5, 2-[(3aR,4R,5S,7aS)-5-{(1S)-1-[3,5-bis(trifluoromethyl)phenyl]-2-hydroxyethoxy}-4-(2-methylphenyl)octahydro-2H-isoindol-2-yl]-1,3-oxazol-4(5H)-one] |
| 0.03 |  | Cc1ccccc1[C@H]1[C@@H]2CN(C(=O)N(C)C)C[C@H]2CC[C@@H]1O[C@H](CO)c1cc(C(F)(F)F)cc(C(F)(F)F)c1 [Example 6, (3aR,4R,5S,7aS)-5-{(1S)-1-[3,5-bis(trifluoromethyl)phenyl]-2-hydroxyethoxy}-N,N-dimethyl-4-(2-methylphenyl)octahydro-2H-isoindole-2-carboxamide] |
| 0.08 |  | Cc1ccccc1[C@H]1[C@@H]2CN(C(=O)C(C)C)C[C@H]2CC[C@@H]1O[C@H](CO)c1cc(C(F)(F)F)cc(C(F)(F)F)c1 [Example 7, (2S)-2-[3,5-bis(trifluoromethyl)phenyl]-2-{[(3aR,4R,5S,7aS)-2-isobutyryl-4-(2-methylphenyl)octahydro-1H-isoindol-5-yl]oxy}ethanol] |
| 0.03 |  | O=C1COC(N2C[C@H]3CC[C@H](O[C@H](CO)c4cc(C(F)(F)F)cc(C(F)(F)F)c4)[C@@H](c4ccc(F)cc4)[C@@H]3C2)=N1 [Example 8] |
| 0.09 |  | O=C1C=C(N2C[C@H]3CC[C@H](O[C@H](CO)c4cc(C(F)(F)F)cc(C(F)(F)F)c4)[C@@H](c4ccc(F)cc4)[C@@H]3C2)CC1 [Example 9] |
| 0.03 |  | Cc1cc(F)ccc1[C@H]1[C@@H]2CN(C3=NC(=O)CO3)C[C@H]2CC[C@@H]1O[C@H](CO)c1cc(C(F)(F)F)cc(C(F)(F)F)c1 [Example 10] |
| 0.03 |  | Cc1cc(F)ccc1[C@H]1[C@@H]2CN(C3=CC(=O)CC3)C[C@H]2CC[C@@H]1O[C@H](CO)c1cc(C(F)(F)F)cc(C(F)(F)F)c1 [Example 11] |
| 0.07 |  | Cc1ccccc1[C@H]1[C@@H]2CN(C(=O)C(C)(C)C)C[C@H]2CC[C@@H]1O[C@H](CO)c1cc(C(F)(F)F)cc(C(F)(F)F)c1 [Example 12] |
| 0.06 |  | Cc1ccccc1[C@H]1[C@@H]2CN(C(=O)C3CC3)C[C@H]2CC[C@@H]1O[C@H](CO)c1cc(C(F)(F)F)cc(C(F)(F)F)c1 [Example 13] |
| 0.46 |  | COC[C@@H](O[C@H]1CC[C@@H]2CN(C(=O)N(C)C)C[C@H]2[C@@H]1c1ccccc1C)c1cc(C(F)(F)F)cc(C(F)(F)F)c1 [Example 14] |
| 0.35 |  | OC[C@@H](O[C@H]1CC[C@@H]2CNC[C@H]2[C@@H]1c1ccc(F)cc1)c1cc(C(F)(F)F)cc(C(F)(F)F)c1 [Example 16] |
| 55 |  | O=C1C=C(N2C[C@H]3CC[C@H](O[C@@H](CO)c4cc(C(F)(F)F)cc(C(F)(F)F)c4)[C@@H](c4ccc(F)cc4)[C@@H]3C2)CC1 [Example 21] |
| 2.2 |  | Cc1ccccc1[C@H]1[C@@H]2CNC[C@H]2CC[C@@H]1O[C@@H](CO)c1cc(C(F)(F)F)cc(C(F)(F)F)c1 [Example 22] |
| 45 |  | Cc1ccccc1[C@H]1[C@@H]2CN(C(=O)C(C)(C)C)C[C@H]2CC[C@@H]1O[C@@H](CO)c1cc(C(F)(F)F)cc(C(F)(F)F)c1 [Example 24] |
|  | 47 | OC[C@H](O[C@H]1CC[C@@H]2CNC[C@H]2[C@@H]1c1ccc(F)cc1)c1cc(C(F)(F)F)cc(C(F)(F)F)c1 [Example 27] |
